Drawing on ChEMBL document CHEMBL5653631, “A Potent and Selective ULK1 Inhibitor Suppresses Autophagy and Sensitizes Cancer Cells to Nutrient Stress” (iScience, 2018), this text covers fold change (FC) and inhibition for three compounds.

Assay [1] has as its target T1, Eukaryotic elongation factor 2 kinase (Homo sapiens) (UniProt O00418).
T1 sequence (whole entry): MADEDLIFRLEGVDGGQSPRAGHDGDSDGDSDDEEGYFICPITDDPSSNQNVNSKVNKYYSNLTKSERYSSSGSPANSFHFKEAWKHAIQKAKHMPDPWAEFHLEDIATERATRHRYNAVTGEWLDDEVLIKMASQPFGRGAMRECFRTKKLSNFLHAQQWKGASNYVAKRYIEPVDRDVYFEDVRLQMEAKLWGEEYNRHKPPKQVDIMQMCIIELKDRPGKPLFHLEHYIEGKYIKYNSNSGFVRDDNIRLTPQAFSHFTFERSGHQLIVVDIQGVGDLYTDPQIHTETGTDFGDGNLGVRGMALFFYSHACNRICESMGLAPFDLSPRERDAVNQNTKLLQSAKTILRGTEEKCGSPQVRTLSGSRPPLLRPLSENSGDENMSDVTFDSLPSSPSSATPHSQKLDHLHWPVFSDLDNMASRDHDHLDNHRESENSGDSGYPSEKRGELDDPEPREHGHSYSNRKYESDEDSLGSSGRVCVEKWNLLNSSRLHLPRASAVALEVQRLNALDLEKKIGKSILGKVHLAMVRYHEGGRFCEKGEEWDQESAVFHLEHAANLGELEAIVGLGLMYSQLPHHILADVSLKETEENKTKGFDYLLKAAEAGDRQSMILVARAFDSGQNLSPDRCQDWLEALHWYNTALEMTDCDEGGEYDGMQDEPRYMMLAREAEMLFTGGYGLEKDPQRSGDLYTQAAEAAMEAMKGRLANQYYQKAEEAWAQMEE
As to the kind of experiment: Inhibition of human recombinant eEF2K at 40 nM related to control ULK1.

Assay [2] has as its target cAMP-dependent protein kinase catalytic subunit beta (Homo sapiens) (UniProt P22694). As to the kind of experiment: Inhibition of human recombinant PKACbeta at 40 nM related to control ULK1.
Assay [3] has as its target Cell division cycle 7-related protein kinase (Homo sapiens) (UniProt O00311). The experiment in a line: Inhibition of human recombinant CDC7 at 500 nM in presence of ATP by radiometric assay relative to control.
The target in assay [4] is Cyclin-dependent kinase 1 (Homo sapiens) (UniProt P06493). The experiment in a line: Inhibition of human recombinant CDC2 at 500 nM in presence of ATP by radiometric assay relative to control.
Assay [5] deals with Casein kinase I isoform gamma-2 (Homo sapiens) (UniProt P78368). The experiment in a line: Inhibition of human recombinant CK1g2 at 500 nM related to control ULK1.
Assay [6] has as its target T2, Interleukin-1 receptor-associated kinase 4 (Homo sapiens) (UniProt Q9NWZ3).
T2 sequence (whole entry): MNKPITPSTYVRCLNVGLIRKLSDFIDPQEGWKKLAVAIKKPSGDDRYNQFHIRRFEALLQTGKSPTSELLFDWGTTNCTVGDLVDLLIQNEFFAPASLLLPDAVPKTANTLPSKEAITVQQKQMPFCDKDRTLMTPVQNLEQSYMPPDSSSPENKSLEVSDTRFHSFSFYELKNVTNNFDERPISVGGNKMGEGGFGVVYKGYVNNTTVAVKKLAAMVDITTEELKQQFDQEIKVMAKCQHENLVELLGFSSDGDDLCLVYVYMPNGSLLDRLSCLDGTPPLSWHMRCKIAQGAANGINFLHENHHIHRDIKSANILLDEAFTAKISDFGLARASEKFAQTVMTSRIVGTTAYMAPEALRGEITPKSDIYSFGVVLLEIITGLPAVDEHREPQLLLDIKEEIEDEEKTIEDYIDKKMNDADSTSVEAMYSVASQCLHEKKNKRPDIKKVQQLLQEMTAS
As to the kind of experiment: Inhibition of human recombinant IRAK4 at 500 nM in presence of ATP by radiometric assay relative to control.

The target of assay [7] is Proto-oncogene tyrosine-protein kinase Src (Homo sapiens) (UniProt P12931). The experiment in a line: Inhibition of human recombinant SRC at 15 nM related to control ULK1.
For assay [8], the target named is Tyrosine-protein kinase Fyn (Homo sapiens) (UniProt P06241). The experiment in a line: Inhibition of human recombinant FYN at 15 nM related to control ULK1.
In assay [9] the target is BDNF/NT-3 growth factors receptor (Homo sapiens) (UniProt Q16620). As to the kind of experiment: Inhibition of human recombinant TRKB at 15 nM related to control ULK1.
The target of assay [10] is Serine/threonine-protein kinase 32A (Homo sapiens) (UniProt Q8WU08). As to the kind of experiment: Inhibition of human recombinant YANK1 at 15 nM related to control ULK1.
The target of assay [11] is T3, Ephrin type-B receptor 1 (Homo sapiens) (UniProt P54762).
T3 sequence (whole entry): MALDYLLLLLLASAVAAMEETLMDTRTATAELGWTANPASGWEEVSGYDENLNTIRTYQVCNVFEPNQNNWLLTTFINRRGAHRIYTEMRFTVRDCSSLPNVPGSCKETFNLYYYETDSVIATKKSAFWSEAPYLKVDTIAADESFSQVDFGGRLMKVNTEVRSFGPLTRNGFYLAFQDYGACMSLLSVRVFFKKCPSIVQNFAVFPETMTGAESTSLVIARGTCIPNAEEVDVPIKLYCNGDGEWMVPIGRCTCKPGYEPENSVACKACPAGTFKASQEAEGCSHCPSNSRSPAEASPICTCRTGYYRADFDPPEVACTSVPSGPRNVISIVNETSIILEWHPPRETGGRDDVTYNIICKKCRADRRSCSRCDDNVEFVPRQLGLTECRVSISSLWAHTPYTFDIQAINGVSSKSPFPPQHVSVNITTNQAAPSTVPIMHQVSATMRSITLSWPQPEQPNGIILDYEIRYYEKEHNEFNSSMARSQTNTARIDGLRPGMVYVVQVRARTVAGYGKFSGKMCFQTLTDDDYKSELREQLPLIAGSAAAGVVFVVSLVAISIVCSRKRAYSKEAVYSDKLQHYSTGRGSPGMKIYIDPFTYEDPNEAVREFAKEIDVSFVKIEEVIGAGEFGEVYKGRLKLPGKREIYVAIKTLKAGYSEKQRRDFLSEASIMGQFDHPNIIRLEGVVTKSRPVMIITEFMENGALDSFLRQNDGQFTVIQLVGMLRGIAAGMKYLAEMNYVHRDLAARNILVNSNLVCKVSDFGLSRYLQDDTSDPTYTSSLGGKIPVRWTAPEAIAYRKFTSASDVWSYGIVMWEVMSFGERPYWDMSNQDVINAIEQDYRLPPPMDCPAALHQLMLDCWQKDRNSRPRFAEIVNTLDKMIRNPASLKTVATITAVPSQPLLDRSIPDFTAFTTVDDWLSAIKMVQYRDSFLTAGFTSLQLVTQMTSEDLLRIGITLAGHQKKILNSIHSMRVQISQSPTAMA
The experiment in a line: Inhibition of human recombinant EphB1 at 15 nM related to control ULK1.

The target of assay [12] is Tyrosine-protein kinase Lyn (Homo sapiens) (UniProt P07948). As to the kind of experiment: Inhibition of human recombinant LYN at 15 nM in presence of ATP by radiometric assay relative to control.

Each structure is given as a SMILES string.

Chain of Tyrosine-protein kinase Fyn (Homo sapiens) (P06241 2-537 limits assumed): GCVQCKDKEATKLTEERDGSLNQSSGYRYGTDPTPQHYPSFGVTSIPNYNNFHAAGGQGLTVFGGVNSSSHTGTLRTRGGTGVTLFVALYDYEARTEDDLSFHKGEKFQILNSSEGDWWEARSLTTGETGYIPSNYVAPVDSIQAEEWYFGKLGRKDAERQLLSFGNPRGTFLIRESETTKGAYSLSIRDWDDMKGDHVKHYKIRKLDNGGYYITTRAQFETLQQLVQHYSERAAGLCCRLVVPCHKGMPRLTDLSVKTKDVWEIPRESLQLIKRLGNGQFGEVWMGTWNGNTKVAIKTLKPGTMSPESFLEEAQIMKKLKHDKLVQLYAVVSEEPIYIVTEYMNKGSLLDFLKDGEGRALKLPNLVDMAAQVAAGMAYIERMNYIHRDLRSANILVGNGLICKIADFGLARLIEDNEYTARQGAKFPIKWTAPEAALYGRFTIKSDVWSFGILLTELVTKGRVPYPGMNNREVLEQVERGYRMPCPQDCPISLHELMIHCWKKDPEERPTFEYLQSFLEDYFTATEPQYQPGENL
Chain of BDNF/NT-3 growth factors receptor (Homo sapiens) (Q16620 32-822 limits assumed): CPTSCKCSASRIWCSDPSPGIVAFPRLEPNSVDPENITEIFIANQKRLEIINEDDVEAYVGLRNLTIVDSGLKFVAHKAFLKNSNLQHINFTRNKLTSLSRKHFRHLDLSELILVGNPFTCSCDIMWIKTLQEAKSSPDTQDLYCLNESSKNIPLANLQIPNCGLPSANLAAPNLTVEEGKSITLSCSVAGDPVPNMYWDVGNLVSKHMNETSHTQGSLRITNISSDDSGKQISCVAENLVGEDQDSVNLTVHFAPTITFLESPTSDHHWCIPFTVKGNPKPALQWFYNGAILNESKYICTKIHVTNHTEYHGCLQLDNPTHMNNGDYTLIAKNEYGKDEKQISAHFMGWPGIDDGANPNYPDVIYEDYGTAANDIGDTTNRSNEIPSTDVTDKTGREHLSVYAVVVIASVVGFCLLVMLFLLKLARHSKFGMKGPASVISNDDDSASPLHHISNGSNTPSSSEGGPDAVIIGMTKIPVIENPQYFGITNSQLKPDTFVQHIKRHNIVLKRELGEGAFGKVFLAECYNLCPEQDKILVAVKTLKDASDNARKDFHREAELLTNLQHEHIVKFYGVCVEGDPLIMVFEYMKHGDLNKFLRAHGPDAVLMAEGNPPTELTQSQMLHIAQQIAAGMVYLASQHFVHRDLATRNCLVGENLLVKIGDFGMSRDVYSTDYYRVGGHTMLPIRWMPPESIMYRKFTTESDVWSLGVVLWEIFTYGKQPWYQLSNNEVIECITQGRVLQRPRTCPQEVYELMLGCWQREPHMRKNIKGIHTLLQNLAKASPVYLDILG
Chain of Cyclin-dependent kinase 1 (Homo sapiens) (P06493 whole entry, looked up, canonical isoform): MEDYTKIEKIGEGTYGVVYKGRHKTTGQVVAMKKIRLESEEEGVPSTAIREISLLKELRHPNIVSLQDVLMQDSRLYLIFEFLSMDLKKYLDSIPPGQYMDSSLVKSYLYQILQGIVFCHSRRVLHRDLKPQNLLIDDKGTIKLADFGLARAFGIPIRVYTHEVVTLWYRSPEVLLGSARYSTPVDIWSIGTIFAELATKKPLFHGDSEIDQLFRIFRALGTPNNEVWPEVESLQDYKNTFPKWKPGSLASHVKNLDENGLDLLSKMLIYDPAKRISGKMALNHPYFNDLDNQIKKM
Chain of Casein kinase I isoform gamma-2 (Homo sapiens) (P78368 whole entry, looked up, canonical isoform): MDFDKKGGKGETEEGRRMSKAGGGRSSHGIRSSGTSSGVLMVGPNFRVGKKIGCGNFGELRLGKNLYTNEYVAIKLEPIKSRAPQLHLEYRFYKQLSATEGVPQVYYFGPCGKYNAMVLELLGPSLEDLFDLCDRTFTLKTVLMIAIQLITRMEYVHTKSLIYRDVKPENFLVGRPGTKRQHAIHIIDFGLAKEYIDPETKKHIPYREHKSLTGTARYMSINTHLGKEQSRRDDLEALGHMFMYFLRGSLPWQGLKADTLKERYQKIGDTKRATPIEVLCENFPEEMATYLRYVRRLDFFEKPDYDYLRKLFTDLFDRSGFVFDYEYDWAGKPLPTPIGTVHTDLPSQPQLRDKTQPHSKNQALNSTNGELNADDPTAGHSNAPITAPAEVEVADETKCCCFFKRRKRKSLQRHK
Chain of Cell division cycle 7-related protein kinase (Homo sapiens) (O00311 whole entry, looked up): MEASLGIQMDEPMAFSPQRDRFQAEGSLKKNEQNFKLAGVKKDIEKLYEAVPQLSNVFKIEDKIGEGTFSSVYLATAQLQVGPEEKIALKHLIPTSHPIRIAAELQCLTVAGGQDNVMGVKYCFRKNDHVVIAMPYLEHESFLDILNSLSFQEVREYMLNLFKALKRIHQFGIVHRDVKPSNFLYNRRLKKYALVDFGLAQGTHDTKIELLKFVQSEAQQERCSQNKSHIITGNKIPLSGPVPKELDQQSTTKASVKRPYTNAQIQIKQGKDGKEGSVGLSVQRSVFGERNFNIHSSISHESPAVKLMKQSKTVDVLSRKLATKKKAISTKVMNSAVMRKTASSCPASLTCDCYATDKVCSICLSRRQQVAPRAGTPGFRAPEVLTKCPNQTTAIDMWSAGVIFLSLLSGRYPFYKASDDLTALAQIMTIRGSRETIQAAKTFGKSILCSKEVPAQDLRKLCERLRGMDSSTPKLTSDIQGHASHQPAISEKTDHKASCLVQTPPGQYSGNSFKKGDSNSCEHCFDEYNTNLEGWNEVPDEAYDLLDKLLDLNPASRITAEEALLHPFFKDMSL
Chain of Serine/threonine-protein kinase 32A (Homo sapiens) (Q8WU08 whole entry): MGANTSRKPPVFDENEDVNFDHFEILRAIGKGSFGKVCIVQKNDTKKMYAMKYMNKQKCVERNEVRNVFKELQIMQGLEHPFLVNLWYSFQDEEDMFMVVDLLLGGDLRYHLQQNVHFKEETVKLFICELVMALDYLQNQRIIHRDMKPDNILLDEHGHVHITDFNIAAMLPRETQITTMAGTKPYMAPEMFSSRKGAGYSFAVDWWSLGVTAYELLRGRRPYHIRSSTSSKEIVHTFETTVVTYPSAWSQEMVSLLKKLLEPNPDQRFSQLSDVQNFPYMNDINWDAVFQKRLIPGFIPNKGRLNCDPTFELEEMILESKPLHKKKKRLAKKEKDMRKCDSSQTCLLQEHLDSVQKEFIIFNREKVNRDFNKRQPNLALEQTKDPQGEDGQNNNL
Chain of Tyrosine-protein kinase Lyn (Homo sapiens) (P07948 2-512 limits assumed): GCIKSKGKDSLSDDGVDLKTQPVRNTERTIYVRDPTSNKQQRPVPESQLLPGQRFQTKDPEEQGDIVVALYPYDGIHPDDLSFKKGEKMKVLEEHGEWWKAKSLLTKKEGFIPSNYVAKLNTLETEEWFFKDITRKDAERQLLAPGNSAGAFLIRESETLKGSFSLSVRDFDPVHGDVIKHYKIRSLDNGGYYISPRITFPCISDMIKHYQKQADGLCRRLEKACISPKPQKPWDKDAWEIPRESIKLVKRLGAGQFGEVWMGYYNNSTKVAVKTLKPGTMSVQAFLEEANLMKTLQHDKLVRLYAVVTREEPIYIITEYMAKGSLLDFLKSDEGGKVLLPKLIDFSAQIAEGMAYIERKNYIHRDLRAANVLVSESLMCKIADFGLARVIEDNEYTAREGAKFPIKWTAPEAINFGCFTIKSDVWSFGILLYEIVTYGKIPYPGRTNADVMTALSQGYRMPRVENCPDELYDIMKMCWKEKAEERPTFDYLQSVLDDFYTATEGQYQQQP
Chain of Proto-oncogene tyrosine-protein kinase Src (Homo sapiens) (P12931 2-536 limits assumed): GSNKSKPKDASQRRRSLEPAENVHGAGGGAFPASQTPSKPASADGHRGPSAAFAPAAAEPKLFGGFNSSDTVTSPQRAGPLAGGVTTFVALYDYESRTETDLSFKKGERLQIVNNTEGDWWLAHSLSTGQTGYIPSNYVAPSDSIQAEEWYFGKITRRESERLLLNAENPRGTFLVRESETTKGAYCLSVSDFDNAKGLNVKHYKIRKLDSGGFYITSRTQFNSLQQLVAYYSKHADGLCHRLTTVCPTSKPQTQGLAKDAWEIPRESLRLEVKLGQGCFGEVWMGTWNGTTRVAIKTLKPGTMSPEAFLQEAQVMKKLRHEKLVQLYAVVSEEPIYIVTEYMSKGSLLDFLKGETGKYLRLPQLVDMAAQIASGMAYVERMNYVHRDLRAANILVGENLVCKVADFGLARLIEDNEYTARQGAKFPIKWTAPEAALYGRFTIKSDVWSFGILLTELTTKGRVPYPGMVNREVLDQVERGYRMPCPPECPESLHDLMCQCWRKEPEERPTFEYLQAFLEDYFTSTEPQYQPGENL

On to `O=C(N[C@@H](C1CC1)C(F)(F)F)c1cc(-c2cnn3cc(-c4ccc(F)cc4)cnc23)cs1`, for which the fold change (FC) in assay [1] turned out to be 0.1; in assay [2], 0.

With `CNC(=O)c1ccccc1Oc1nc(Nc2cc(OC)c(OC)c(OC)c2)ncc1Br`, the inhibition turned out to be 0% in [3], 30% in assay [4] and 6% in [6]. Moreover, in assay [5], the fold change (FC) worked out at 0.

Regarding `CC(C)[C@H](NC(=O)c1cc(-c2cnn3cc(-c4ccc(OCCN5CCCCC5)cc4)cnc23)cs1)C(F)(F)F`, the fold change (FC) in assay [7] was 0.17; in assay [8], 0.18; in assay [9], 0; in assay [10], 0.02; in assay [11], 0.14. For the same compound, the inhibition in [12] turned out to be 19%.
